ChEMBL document CHEMBL5723584 (2023)
Active and inactive are the calls of the source. The calls are words filed in the database; no cut-off is given here.

Assays:
[1] = molecular target: Serine/threonine-protein kinase Chk1 (Homo sapiens) (UniProt O14757); assay: activity of CHK1(h) at 1.0 µM in the Eurofins Kinase panel; settings: Compound concentration 1.0 uM
[2] = molecular target: Hepatocyte growth factor receptor (Homo sapiens) (UniProt P08581); assay: activity of Met(h) at 1.0 µM in the Eurofins Kinase panel; settings: Compound concentration 1.0 uM
[3] = molecular target: CDC7/Cyclin B1 (Homo sapiens) (UniProt P14635+O00311); assay: activity of Cdc7/cyclinB1(h) at 1.0 µM in the Eurofins Kinase panel; format: protein-complex assay; settings: Compound concentration 1.0 uM
[4] = molecular target: Insulin receptor (Homo sapiens) (UniProt P06213); assay: activity of IR(h), activated at 1.0 µM in the Eurofins Kinase panel; settings: Compound concentration 1.0 uM
[5] = molecular target: Serine/threonine-protein kinase Chk2 (Homo sapiens) (UniProt O96017); assay: activity of CHK2(h) at 1.0 µM in the Eurofins Kinase panel; settings: Compound concentration 1.0 uM
[6] = molecular target: Interleukin-1 receptor-associated kinase 4 (Homo sapiens) (UniProt Q9NWZ3); assay: activity of IRAK4(h) at 1.0 µM in the Eurofins Kinase panel; settings: Compound concentration 1.0 uM
[7] = molecular target: Myosin light chain kinase 2, skeletal/cardiac muscle (Homo sapiens) (UniProt Q9H1R3); assay: activity of MYLK2(h) at 1.0 µM in the Eurofins Kinase panel; settings: Compound concentration 1.0 uM
[8] = molecular target: Citron Rho-interacting kinase (Homo sapiens, UniProt O14578); assay: NanoLuc NanoBRET (CITKD); settings: read-out: Kd
[9] = molecular target: Serine/threonine-protein kinase N2 (Homo sapiens) (UniProt Q16513); assay: activity of PRK2(h) at 1.0 µM in the Eurofins Kinase panel; settings: Compound concentration 1.0 uM
[10] = molecular target: Serine/threonine-protein kinase PAK 4 (Homo sapiens) (UniProt O96013); assay: activity of PAK4(h) at 1.0 µM in the Eurofins Kinase panel; settings: Compound concentration 1.0 uM
[11] = molecular target: Activin receptor type-1-like (Homo sapiens) (UniProt P37023); assay: activity of ALK1(h) at 1.0 µM in the Eurofins Kinase panel; settings: Compound concentration 1.0 uM
[12] = molecular target: Ephrin type-A receptor 7 (Homo sapiens) (UniProt Q15375); assay: activity of EphA7(h) at 1.0 µM in the Eurofins Kinase panel; settings: Compound concentration 1.0 uM
[13] = molecular target: Misshapen-like kinase 1 (Homo sapiens) (UniProt Q8N4C8); assay: activity of MINK(h) at 1.0 µM in the Eurofins Kinase panel; settings: Compound concentration 1.0 uM
[14] = molecular target: Tyrosine-protein kinase HCK (Homo sapiens) (UniProt P08631); assay: activity of Hck(h) activated at 1.0 µM in the Eurofins Kinase panel; settings: Compound concentration 1.0 uM
[15] = molecular target: Epidermal growth factor receptor (Homo sapiens) (UniProt P00533); assay: activity of EGFR(h) at 1.0 µM in the Eurofins Kinase panel; settings: Compound concentration 1.0 uM
[16] = molecular target: Dual specificity tyrosine-phosphorylation-regulated kinase 1A (Homo sapiens) (UniProt Q13627); assay: activity of DYRK1A(h) at 1.0 µM in the Eurofins Kinase panel; settings: Compound concentration 1.0 uM
[17] = molecular target: Ephrin type-A receptor 3 (Homo sapiens) (UniProt P29320); assay: activity of EphA3(h) at 1.0 µM in the Eurofins Kinase panel; settings: Compound concentration 1.0 uM
[18] = molecular target: Phosphatidylinositol 3-kinase C2 domain-containing subunit gamma (Homo sapiens) (UniProt O75747); assay: activity of PI3KC2gamma(h) at 1.0 µM in the Eurofins Kinase panel; settings: Compound concentration 1.0 uM
[19] = molecular target: Leucine-rich repeat serine/threonine-protein kinase 2 (Homo sapiens) (UniProt Q5S007); assay: activity of LRRK2(h) at 1.0 µM in the Eurofins Kinase panel; settings: Compound concentration 1.0 uM
[20] = molecular target: MAP/microtubule affinity-regulating kinase 4 (Homo sapiens) (UniProt Q96L34); assay: activity of MARK4(h) at 1.0 µM in the Eurofins Kinase panel; settings: Compound concentration 1.0 uM
[21] = molecular target: Wee1-like protein kinase 2 (Homo sapiens) (UniProt P0C1S8); assay: activity of Wee1B(h) at 1.0 µM in the Eurofins Kinase panel; settings: Compound concentration 1.0 uM
[22] = molecular target: Serine/threonine-protein kinase haspin (Homo sapiens) (UniProt Q8TF76); assay: activity of Haspin(h) at 1.0 µM in the Eurofins Kinase panel; settings: Compound concentration 1.0 uM
[23] = molecular target: Receptor tyrosine-protein kinase erbB-2 (Homo sapiens) (UniProt P04626); assay: activity of ErbB2(h) at 1.0 µM in the Eurofins Kinase panel; settings: Compound concentration 1.0 uM
[24] = molecular target: AP2-associated protein kinase 1 (Homo sapiens, UniProt Q2M2I8); assay: Promega NanoBRET (AAK1)
[25] = molecular target: Cyclin-dependent kinase 13/Cyclin-K (Homo sapiens) (UniProt Q14004+O75909); assay: activity of CDK13/cyclinK(h) at 1.0 µM in the Eurofins Kinase panel; format: protein-complex assay; settings: Compound concentration 1.0 uM
[26] = molecular target: Protein-tyrosine kinase 2-beta (Homo sapiens) (UniProt Q14289); assay: activity of Pyk2(h) at 1.0 µM in the Eurofins Kinase panel; settings: Compound concentration 1.0 uM

Sequence of Citron Rho-interacting kinase (O14578 whole entry): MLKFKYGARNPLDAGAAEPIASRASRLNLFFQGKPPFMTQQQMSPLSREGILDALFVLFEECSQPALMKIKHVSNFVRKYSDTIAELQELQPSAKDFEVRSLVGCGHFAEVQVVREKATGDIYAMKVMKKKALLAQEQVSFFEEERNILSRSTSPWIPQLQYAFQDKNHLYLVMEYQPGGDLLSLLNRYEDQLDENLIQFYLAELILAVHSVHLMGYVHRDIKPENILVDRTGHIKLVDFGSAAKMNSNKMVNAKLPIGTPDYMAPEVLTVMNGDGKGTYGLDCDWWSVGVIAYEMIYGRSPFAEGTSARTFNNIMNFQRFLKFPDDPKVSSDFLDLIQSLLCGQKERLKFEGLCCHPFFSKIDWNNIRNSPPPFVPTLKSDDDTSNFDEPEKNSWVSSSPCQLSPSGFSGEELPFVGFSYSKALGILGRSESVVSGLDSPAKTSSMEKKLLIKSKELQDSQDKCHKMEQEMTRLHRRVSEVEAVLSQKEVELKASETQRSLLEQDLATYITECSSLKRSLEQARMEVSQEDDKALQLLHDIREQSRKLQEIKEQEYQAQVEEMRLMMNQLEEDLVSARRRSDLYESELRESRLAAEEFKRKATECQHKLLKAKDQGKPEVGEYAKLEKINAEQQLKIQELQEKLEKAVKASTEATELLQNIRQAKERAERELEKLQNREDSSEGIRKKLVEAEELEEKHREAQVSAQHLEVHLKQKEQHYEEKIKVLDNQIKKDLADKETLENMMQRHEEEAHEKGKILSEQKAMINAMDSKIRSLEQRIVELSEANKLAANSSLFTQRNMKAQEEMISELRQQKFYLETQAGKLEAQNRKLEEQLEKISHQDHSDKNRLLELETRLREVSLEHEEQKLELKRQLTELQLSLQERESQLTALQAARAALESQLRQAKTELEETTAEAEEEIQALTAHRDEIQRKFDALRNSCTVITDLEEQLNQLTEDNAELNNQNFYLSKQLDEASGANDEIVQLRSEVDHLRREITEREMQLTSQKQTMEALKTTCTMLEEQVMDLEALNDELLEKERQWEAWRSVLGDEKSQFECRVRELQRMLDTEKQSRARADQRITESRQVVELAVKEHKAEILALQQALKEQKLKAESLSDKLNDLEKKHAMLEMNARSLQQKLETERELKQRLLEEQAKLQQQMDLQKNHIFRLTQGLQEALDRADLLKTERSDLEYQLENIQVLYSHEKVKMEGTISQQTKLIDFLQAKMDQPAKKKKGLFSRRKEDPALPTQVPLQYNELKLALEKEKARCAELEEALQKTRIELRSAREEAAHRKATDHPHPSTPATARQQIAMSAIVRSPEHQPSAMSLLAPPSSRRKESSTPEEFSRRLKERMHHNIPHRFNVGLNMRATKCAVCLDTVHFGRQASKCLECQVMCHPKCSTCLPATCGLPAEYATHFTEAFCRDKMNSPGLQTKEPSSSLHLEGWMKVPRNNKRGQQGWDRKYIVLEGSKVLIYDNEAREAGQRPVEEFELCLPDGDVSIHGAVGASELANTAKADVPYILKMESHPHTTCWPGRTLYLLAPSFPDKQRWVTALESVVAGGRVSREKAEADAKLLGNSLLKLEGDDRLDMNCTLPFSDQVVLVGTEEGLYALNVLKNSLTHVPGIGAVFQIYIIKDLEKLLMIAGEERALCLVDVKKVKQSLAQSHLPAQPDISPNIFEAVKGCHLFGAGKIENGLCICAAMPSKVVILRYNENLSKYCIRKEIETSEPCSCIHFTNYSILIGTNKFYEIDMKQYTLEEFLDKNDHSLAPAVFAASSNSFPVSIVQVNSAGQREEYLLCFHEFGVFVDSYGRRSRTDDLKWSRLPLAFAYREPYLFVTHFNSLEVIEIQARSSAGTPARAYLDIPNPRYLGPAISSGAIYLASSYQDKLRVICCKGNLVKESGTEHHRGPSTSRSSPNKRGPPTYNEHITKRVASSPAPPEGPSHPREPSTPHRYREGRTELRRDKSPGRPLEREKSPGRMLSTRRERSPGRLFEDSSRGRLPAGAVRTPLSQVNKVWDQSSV
Sequence of Activin receptor type-1-like (Homo sapiens) (P37023 whole entry): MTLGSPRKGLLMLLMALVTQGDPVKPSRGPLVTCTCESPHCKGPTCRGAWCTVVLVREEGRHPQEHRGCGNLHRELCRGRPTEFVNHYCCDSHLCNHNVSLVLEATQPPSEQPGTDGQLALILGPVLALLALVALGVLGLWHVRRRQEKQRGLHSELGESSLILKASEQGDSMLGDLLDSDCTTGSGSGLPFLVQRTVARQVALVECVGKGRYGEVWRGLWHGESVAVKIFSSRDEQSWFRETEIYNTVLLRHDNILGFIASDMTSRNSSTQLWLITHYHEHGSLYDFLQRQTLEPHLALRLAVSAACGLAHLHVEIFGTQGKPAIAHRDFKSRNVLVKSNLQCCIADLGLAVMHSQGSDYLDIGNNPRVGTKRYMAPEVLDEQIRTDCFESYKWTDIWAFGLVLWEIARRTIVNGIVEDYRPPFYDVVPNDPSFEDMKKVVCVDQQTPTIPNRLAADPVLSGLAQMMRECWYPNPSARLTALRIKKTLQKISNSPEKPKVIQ
Sequence of Receptor tyrosine-protein kinase erbB-2 (Homo sapiens) (P04626 whole entry): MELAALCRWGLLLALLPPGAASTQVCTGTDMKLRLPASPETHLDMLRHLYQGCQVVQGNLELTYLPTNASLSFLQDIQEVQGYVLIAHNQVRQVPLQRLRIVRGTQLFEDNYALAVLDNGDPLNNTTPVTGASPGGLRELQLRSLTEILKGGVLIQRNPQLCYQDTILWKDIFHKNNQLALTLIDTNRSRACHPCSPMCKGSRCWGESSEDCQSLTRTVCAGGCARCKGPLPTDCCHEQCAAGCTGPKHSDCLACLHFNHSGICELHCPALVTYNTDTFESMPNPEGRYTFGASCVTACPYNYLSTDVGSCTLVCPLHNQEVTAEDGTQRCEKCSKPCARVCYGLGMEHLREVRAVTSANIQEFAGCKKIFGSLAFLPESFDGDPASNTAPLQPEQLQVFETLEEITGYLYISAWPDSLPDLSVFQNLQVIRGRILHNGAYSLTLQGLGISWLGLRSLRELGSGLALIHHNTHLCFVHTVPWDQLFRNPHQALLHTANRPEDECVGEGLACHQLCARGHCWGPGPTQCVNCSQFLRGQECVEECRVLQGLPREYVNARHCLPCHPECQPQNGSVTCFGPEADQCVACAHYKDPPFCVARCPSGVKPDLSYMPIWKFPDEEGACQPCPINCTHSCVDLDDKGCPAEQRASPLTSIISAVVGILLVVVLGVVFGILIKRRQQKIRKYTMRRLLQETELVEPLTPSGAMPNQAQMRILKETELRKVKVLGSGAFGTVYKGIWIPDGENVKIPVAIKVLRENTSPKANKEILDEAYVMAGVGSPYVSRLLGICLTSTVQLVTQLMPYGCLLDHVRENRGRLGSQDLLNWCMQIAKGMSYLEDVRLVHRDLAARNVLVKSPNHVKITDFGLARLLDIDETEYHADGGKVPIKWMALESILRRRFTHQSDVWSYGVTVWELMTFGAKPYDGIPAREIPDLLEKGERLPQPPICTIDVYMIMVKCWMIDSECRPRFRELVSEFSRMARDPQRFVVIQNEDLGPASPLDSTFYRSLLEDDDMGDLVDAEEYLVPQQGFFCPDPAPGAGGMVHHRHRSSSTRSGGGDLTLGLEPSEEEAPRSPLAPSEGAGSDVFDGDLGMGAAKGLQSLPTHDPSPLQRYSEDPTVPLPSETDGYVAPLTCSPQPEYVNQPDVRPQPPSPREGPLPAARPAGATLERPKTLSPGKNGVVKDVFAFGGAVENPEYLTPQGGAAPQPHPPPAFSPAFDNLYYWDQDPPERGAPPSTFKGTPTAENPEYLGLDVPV
Sequence of Serine/threonine-protein kinase Chk1 (Homo sapiens) (O14757 whole entry): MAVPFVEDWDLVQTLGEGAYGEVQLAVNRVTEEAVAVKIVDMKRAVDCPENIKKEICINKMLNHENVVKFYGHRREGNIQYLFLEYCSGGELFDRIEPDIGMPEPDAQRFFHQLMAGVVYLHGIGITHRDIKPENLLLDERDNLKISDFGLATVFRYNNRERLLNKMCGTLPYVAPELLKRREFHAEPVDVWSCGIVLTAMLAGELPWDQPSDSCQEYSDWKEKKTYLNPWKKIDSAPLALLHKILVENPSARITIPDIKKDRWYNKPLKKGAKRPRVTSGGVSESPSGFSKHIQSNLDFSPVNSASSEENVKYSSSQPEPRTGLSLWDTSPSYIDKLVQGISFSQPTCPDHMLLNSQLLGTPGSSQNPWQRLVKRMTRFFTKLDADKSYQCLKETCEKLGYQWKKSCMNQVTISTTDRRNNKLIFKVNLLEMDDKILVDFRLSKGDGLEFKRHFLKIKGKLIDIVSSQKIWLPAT
Sequence of Tyrosine-protein kinase HCK (Homo sapiens) (P08631 2-526 limits assumed): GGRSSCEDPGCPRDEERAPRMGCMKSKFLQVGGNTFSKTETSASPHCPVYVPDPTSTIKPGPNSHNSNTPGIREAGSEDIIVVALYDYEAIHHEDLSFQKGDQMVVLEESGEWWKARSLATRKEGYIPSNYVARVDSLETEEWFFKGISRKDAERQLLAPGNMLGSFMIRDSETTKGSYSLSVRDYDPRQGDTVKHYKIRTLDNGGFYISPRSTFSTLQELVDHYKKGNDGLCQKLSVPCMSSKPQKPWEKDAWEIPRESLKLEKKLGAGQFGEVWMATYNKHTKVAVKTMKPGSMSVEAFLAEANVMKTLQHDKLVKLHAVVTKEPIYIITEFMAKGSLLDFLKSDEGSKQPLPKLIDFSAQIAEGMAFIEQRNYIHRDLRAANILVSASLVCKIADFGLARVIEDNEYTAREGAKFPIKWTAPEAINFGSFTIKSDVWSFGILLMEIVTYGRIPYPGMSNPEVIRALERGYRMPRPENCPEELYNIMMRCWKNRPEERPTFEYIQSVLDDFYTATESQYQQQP

**Q.** How did the activity [1] turn out when Cc1cc2c(-c3ccc(NC(=O)[C@H](N)CC(C)(C)C)cc3C)ccnc2[nH]1 was run?
**A.** 108%

**Q.** And the activity [2]?
**A.** 90%

**Q.** What about the activity [3] of the same compound?
**A.** 75%

**Q.** And the activity [4]?
**A.** 92%

**Q.** What about the activity [5] of the same compound?
**A.** 95%

**Q.** And the activity [6]?
**A.** 90%

**Q.** What about the activity [7] of the same compound?
**A.** 76%

**Q.** What about the Kd [8] of the same compound?
**A.** 0.0003 µM (active)

**Q.** And the activity [9]?
**A.** 92%

**Q.** And the activity [10]?
**A.** 83%

**Q.** And the activity [11]?
**A.** 94%

**Q.** And the activity [12]?
**A.** 114%

**Q.** What about the activity [13] of the same compound?
**A.** 89%

**Q.** What about the activity [14] of the same compound?
**A.** 111%

**Q.** What about the activity [15] of the same compound?
**A.** 107%

**Q.** What about the activity [16] of the same compound?
**A.** 112%

**Q.** And the activity [17]?
**A.** 79%

**Q.** What about the activity [18] of the same compound?
**A.** 103%

**Q.** And the activity [19]?
**A.** 100%

**Q.** And the activity [20]?
**A.** 92%

**Q.** And the activity [21]?
**A.** 88%

**Q.** What about the activity [22] of the same compound?
**A.** 140%

**Q.** And the activity [23]?
**A.** 97%

**Q.** What about the IC50 [24] of the same compound?
**A.** 6.2 µM (not active)

**Q.** And the activity [25]?
**A.** 99%

**Q.** What about the activity [26] of the same compound?
**A.** 76%
